Values joined by “and” are separate entries in the source; they are usually repeats but may differ in a detail not shown here. Equal entries are not always repeated.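 A five-concentration, 48-hour dose response in 96-well plates underlies each endpoint, interpolated linearly between surrounding concentrations. At the GI50, growth is halved. TGI marks complete inhibition of growth.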
Experiments:
Assay in all cases: NCI-60 cell line screen, 48 h
[1] = tested on: A498 renal
[2] = tested on: HCT-116 colon
[3] = tested on: HOP-62 NSCLC
[4] = tested on: HOP-92 NSCLC
[5] = tested on: HS 578T breast
[6] = tested on: OVCAR-3 ovarian
[7] = tested on: SF-295 CNS
[8] = tested on: SF-539 CNS
[9] = tested on: SK-MEL-28 melanoma
[10] = tested on: SK-MEL-5 melanoma

Cc1cc2cccnc2c2ncccc12 gave a GI50 [1] of 1.59 µM, a TGI [1] of 7.3 µM and a GI50 [2] of 1.14 µM. For the same molecule, the TGI [2] was 7.06 µM, the GI50 [3] was 1.45 µM and the TGI [3] was greater than 100 µM. It also gave a GI50 [4] of 2.38 µM, a TGI [4] of 17.2 µM and a GI50 [5] of 4.04 µM. For the same molecule, the TGI [5] was 47.9 µM, the GI50 [6] was 1.75 µM and the TGI [6] was 10.3 µM. The GI50 [7] was 0.555 µM, the TGI [7] was 4.57 µM and the GI50 [8] was 1.83 µM. It also gave a TGI [8] of 10.8 µM, a GI50 [9] of 2.56 µM and a TGI [9] greater than 100 µM. For the same molecule, the GI50 [10] was 1.3 µM and the TGI [10] was 10.7 µM.
COc1ccc(-c2nn(-c3ccc(NC(=O)c4ccc(Cl)c(C(F)(F)F)c4)cc3)cc2-c2ccncc2)cc1Cl showed a GI50 [1] of 0.237 µM, a TGI [1] of 4.47 µM and a GI50 [2] of 1.05 µM. It also gave a TGI [2] greater than 100 µM, a GI50 [3] of 0.423 µM and a TGI [3] of 4.88 µM. For the same molecule, the GI50 [4] was 1.71 µM, the TGI [4] was 21.6 µM and the GI50 [5] was 0.201 µM. It also gave a TGI [5] of 0.696 µM, a GI50 [6] of 1.99 µM and a TGI [6] greater than 100 µM. It also gave a GI50 [7] of 0.217 µM, a TGI [7] of 0.79 µM and a GI50 [8] of 0.5 µM. It also gave a GI50 [9] of 2.85 µM, a TGI [9] greater than 100 µM and a GI50 [10] of 1.33 µM. It also gave a TGI [10] of 3.84 µM.
COc1ccc2c(c1)[C@]1(C[C@H]1c1ccc3c(/C=C/c4ccc(CN5C[C@@H](C)O[C@@H](C)C5)cc4)n[nH]c3c1)C(=O)N2 was tested, and the GI50 [1] was 2.34 µM, the TGI [1] was 30.6 µM and the GI50 [2] was 1.77 µM. It also gave a TGI [2] of 12.1 µM, a GI50 [3] of 8.81 µM and a TGI [3] greater than 100 µM. For the same molecule, the GI50 [4] was 5.34 µM, the TGI [4] was 39.1 µM and the GI50 [5] was 4.84 µM. It also gave a TGI [5] of 49.6 µM, a GI50 [6] of 4.19 µM and a TGI [6] of 18.5 µM. The GI50 [7] was 1.79 µM, the TGI [7] was greater than 100 µM and the GI50 [8] was 1.63 µM. It also gave a TGI [8] of 4.63 µM, a GI50 [9] of 6.2 µM and a TGI [9] of 38.1 µM. For the same molecule, the GI50 [10] was 1.77 µM and the TGI [10] was 3.87 µM.
CC1=CC[C@@H]2C(C)(C)C(=O)CC[C@@]2(C)[C@@H]1COc1ccc2ccc(=O)oc2c1 was tested, and the GI50 [1] was 6.56 µM, the TGI [1] was greater than 100 µM and the GI50 [2] was 16.4 µM. For the same molecule, the TGI [2] was greater than 100 µM, the GI50 [3] was 22.3 µM and the TGI [3] was 85.1 µM. For the same molecule, the GI50 [4] was 27.4 µM, the TGI [4] was greater than 100 µM and the GI50 [5] was 40.5 µM. It also gave a TGI [5] greater than 100 µM, a GI50 [6] of 10.1 µM and a TGI [6] of 56.9 µM. For the same molecule, the GI50 [7] was 15.5 µM, the TGI [7] was 44.3 µM and the GI50 [8] was 20.1 µM. The TGI [8] was 63.8 µM, the GI50 [9] was 16.7 µM and the TGI [9] was 45.2 µM. It also gave a GI50 [10] of 4 µM and a TGI [10] of 14.2 µM.
In the case of C=CCn1c(=O)c2cnc(Nc3ccc(N4CCN(C)CC4)cc3)nc2n1-c1ccc2c(n1)[C@@](O)(CC)CC2, the GI50 [1] is reported as 0.161 µM, the TGI [1] is reported as 3.62 µM and the GI50 [2] is reported as 0.415 µM. It also gave a TGI [2] of 16 µM, a GI50 [3] of 1.29 µM and a TGI [3] of 13.8 µM. For the same molecule, the GI50 [4] was 0.494 µM, the TGI [4] was 30.5 µM and the GI50 [5] was 0.755 µM. It also gave a TGI [5] of 12.4 µM, a GI50 [6] of 0.333 µM and a TGI [6] of 2.86 µM. It also gave a GI50 [7] of 0.742 µM, a TGI [7] of 18.7 µM and a GI50 [8] of 0.175 µM. The TGI [8] was 0.68 µM, the GI50 [9] was 3.68 µM and the TGI [9] was 21.6 µM. It also gave a GI50 [10] of 0.3 µM and a TGI [10] of 1.27 µM.
O=C1c2ccccc2NC(c2cc(Cl)cc(Cl)c2O)N1CCc1ccccn1 (configuration not stated) showed a TGI [1] greater than 100 µM, a TGI [2] greater than 100 µM and a TGI [3] greater than 100 µM. It also gave a TGI [4] greater than 100 µM, a TGI [5] greater than 100 µM and a TGI [6] greater than 100 µM. The TGI [7] was greater than 100 µM, the TGI [8] was greater than 100 µM and the TGI [9] was greater than 100 µM. The TGI [10] was greater than 100 µM.
With COC(=O)CCC(C)[C@H]1CCC2C3C(C[C@H](OC(C)=O)[C@@]21C)[C@@]1(C)CCC2(C[C@H]1C[C@H]3OC(C)=O)OOC1(CCC(C)CC1)OO2 (some centres not stated) the TGI [1] was greater than 100 µM, the TGI [2] was greater than 100 µM and the GI50 [3] was 2.06 µM and 8.76 µM. For the same molecule, the TGI [3] was 6.4 µM and 28.4 µM, the TGI [4] was 7.63 µM and 69.9 µM and the GI50 [5] was 2.01 µM and 9.68 µM. For the same molecule, the TGI [5] was 41.6 µM and 70.7 µM, the TGI [6] was > 100 µM and 72 µM and the GI50 [7] was > 100 µM and 47.1 µM. It also gave a TGI [7] greater than 100 µM, a TGI [8] greater than 100 µM and a TGI [9] greater than 100 µM. For the same molecule, the TGI [10] was greater than 100 µM.
With O=C(COc1ccc(/C=C2\Oc3ccccc3C2=O)cc1)Nc1nccs1 the GI50 [1] was 54.1 µM, the TGI [1] was greater than 100 µM and the GI50 [2] was 39.1 µM. It also gave a TGI [2] greater than 100 µM, a GI50 [3] of 85.3 µM and a TGI [3] greater than 100 µM. For the same molecule, the GI50 [4] was 1.53 µM, the TGI [4] was 4.85 µM and the GI50 [5] was 20.7 µM. It also gave a TGI [5] of 80.5 µM, a GI50 [6] of 36.1 µM and a TGI [6] greater than 100 µM. It also gave a GI50 [7] of 41.4 µM, a TGI [7] greater than 100 µM and a GI50 [8] of 32.5 µM. The TGI [8] was greater than 100 µM, the GI50 [9] was greater than 100 µM and the TGI [9] was greater than 100 µM. The GI50 [10] was 64.4 µM and the TGI [10] was greater than 100 µM.
In the case of Oc1c(C(Nc2cccc3ccccc23)c2ccccc2)ccc2cccnc12 (configuration not stated), the GI50 [1] is reported as 3.27 µM, the TGI [1] is reported as 23.9 µM and the GI50 [2] is reported as 2.86 µM. For the same molecule, the TGI [2] was 17.9 µM, the GI50 [3] was 4.9 µM and the TGI [3] was greater than 100 µM. For the same molecule, the GI50 [4] was 2.95 µM, the TGI [4] was 36.3 µM and the GI50 [5] was 7.37 µM. For the same molecule, the TGI [5] was greater than 100 µM, the GI50 [6] was 3.79 µM and the TGI [6] was 19.1 µM. The GI50 [7] was 2.96 µM, the TGI [7] was greater than 100 µM and the GI50 [8] was 4.56 µM. For the same molecule, the TGI [8] was 21.4 µM, the GI50 [9] was 4.14 µM and the TGI [9] was greater than 100 µM. It also gave a GI50 [10] of 2.1 µM and a TGI [10] of 5.99 µM.
CCOC(=O)C1=C(C)NC2SC(=O)/C(=C\c3ccccc3Cl)N2C1c1ccccc1 (configuration not stated) showed a GI50 [1] greater than 100 µM, a TGI [1] greater than 100 µM and a GI50 [2] greater than 100 µM. For the same molecule, the TGI [2] was greater than 100 µM, the GI50 [3] was greater than 100 µM and the TGI [3] was greater than 100 µM. It also gave a GI50 [4] greater than 100 µM, a TGI [4] greater than 100 µM and a GI50 [5] greater than 100 µM. The TGI [5] was greater than 100 µM, the GI50 [6] was greater than 100 µM and the TGI [6] was greater than 100 µM. The GI50 [7] was greater than 100 µM, the TGI [7] was greater than 100 µM and the GI50 [8] was greater than 100 µM. It also gave a TGI [8] greater than 100 µM, a GI50 [9] greater than 100 µM and a TGI [9] greater than 100 µM. It also gave a GI50 [10] of 50.2 µM and a TGI [10] greater than 100 µM.
With Cc1cc(Cc2cc(C)c(O)c(C)c2)cc(C)c1O the GI50 [1] was 11.9 µM, the TGI [1] was 35.5 µM and the GI50 [2] was 4.12 µM. The TGI [2] was 15.2 µM, the GI50 [3] was 7.01 µM and the TGI [3] was 89.6 µM. It also gave a GI50 [4] of 4.35 µM, a TGI [4] of 29.4 µM and a GI50 [5] of 2.58 µM. It also gave a TGI [5] of 12.5 µM, a GI50 [6] of 3.43 µM and a TGI [6] of 10.5 µM. For the same molecule, the GI50 [7] was 3.92 µM, the TGI [7] was 21.7 µM and the GI50 [8] was 3.25 µM. The TGI [8] was 14.2 µM, the GI50 [9] was 11.4 µM and the TGI [9] was 66.5 µM. It also gave a GI50 [10] of 4.53 µM and a TGI [10] of 17.5 µM.

— PubChem BioAssay (NCI)
